Source: patent publication US20170246235A1, “GREEN TEA COMPOSITIONS” (priority 2014, published 2017)
Where two headings read alike, the source gives them in different places.

What was measured:
[1] = meta-analysis of 97 studies, Manach et al. (2005); cited from earlier work
[2] = after oral green tea extract; cited from earlier work
α-amylase = conditions: cited from earlier work; for inhibition of α-amylase: at a concentration of 20 μM
P. falciparum = assay: Parasite growth measured by radiolabeled hypoxanthine uptake; type: cell-based, Plasmodium falciparum
Description: Growth was measured by hypoxanthine uptake using radiolabeled hypoxanthine. […] ([…]) indicates rep. […] Graphpad Prism 6 software was used to analyse the data using the equation for log(inhibitor) vs. normalized response (variable slope).
This example was carried out to determine the parasiticidal efficacy of Phytofare® green tea extract containing catechins. The extract was resuspended in water to give a stock concentration of 58 mg/ml. Parasite growth was measured by hypoxanthine uptake using radiolabeled hypoxanthine as described (Slavic, K. et al., Mol. Biochem. Parasitol. 168:113-116, 2009). […] Each experiment included five technical replicates, and a total of three biological replicates were carried out.
The assay was repeated to obtain the IC50 values for pure caffeine, and for Epigallocatechin Gallate (EGCG) which is present in the extract, obtained from a different source. The concentration ranges used were 352.44 μM to 0.69 μM for caffeine, and 371.01 μM to 0.73 μM for EGCG. These concentrations reflect the molar concentrations present at the highest concentration (μg/ml) of extract used.

MMP9 = conditions: cited from earlier work
breast cancer cells = conditions: cited from earlier work
HIV-1 integrase = target: T1, HIV-1 integrase (Human immunodeficiency virus type 1 group M subtype B, UniProt P04585); conditions: cited from earlier work
T1 construct: Full-length recombinant HIV-1 integrase protein (200 nM, purified from bacteria); literature Express Biotech International; host or cells: bacteria

[3] = cited from earlier work
MMP2 = conditions: cited from earlier work

Oc1cc(O)c2c(c1)O[C@H](c1cc(O)c(O)c(O)c1)[C@H](O)C2 [EGC, epi-gallocatechin]
elimination half-life [1]: 2.3 ± 0.2 h
area-under-curve, aqueous humor [2]: 2.035 ± 0.5317 µM·h
concentration in aqueous humor [2]: 602.9 ± 116.7 nM
inhibition of α-amylase (α-amylase): 13%

Cn1c(=O)c2c(ncn2C)n(C)c1=O [caffeine]
inhibition by caffeine alone (P. falciparum; even at 352.44 μM): no inhibition
IC50, rep. 1 (P. falciparum; independent IC50 assay rep. 1): no calculable IC50 values
IC50, rep. 2 (P. falciparum; independent IC50 assay rep. 2): no calculable IC50 values
IC50, rep. 3 (P. falciparum; independent IC50 assay rep. 3): no calculable IC50 values

Oc1cc(O)c2c(c1)O[C@H](c1ccc(O)c(O)c1)[C@H](O)C2 [epicatechin]
elimination half-life [1]: 2.5 ± 0.4 h

Oc1cc(O)c2c(c1)O[C@H](c1cc(O)c(O)c(O)c1)[C@@H](O)C2 [gallocatechin]
area-under-curve, retina [2]: 207,000 pmol×h/g
highest concentration in the retina [2]: 22729.4 ± 4229.4 pmol/g

epigallocatechin-3-gallate [EGCG]
elimination half-life [1]: 3.5 ± 0.3 h
production of MMP9 (MMP9; 20 ug/ml in the media): completely inhibited
activity of MMP9 (MMP9; 50 μg/ml and 100 ug/ml): completely inhibited
inhibition of invasion by breast cancer cells (breast cancer cells; 20 μg/ml in the media): about 26%
inhibition of invasion by breast cancer cells (breast cancer cells; 50 μg/ml in the media): ~100%
IC50 for HIV-1 integrase (HIV-1 integrase): slightly higher than Raltegravir
effect on Km of α-amylase (α-amylase; 50 μM EGCG, p=0.1): did not significantly affect
Vmax of α-amylase (α-amylase; 50 μM EGCG, reduced from 323.3): 206.1 product/min/mg protein
inhibition of α-amylase (α-amylase): 34%
IC50 (P. falciparum; ± S.E.M., read-out: IC50, means of the three independent experiments): 80.8 µM
cellular toxicity to the corneal epithelium ([3]; 0.01% or 0.1% EGCG): No cellular toxicity
decrease in corneal fluorescein staining compared with the vehicle ([3]; topical 0.1% EGCG): 24.6%
decrease in corneal fluorescein staining compared with untreated controls ([3]; topical 0.1% EGCG): 41.9%
decrease in number of CD11b+ cells, central cornea, compared with the vehicle ([3]; topical 0.1% EGCG): 26.1%
decrease in number of CD11b+ cells, peripheral cornea, compared with the vehicle ([3]; topical 0.1% EGCG): 23.3%
production of MMP2 (MMP2; 20 ug/ml in the media): reduced
activity of MMP2 (MMP2; 50 μg/ml and 100 ug/ml): completely inhibited
